Reference: patent publication US20140315809A1, “CALCIMIMETICS AND METHODS FOR THEIR USE” (KAI PHARMACEUTICALS INC., priority 2011, published 2014)

Tests used:
Assay type in all cases: in vivo, rat
[1] = test system: adenine-induced model of chronic renal failure in rats; test: PTH suppression in adenine-induced chronic renal failure; conditions: uremic rats, 0.3 or 1 mg/kg SC daily for 2 and 4 weeks
Experimental: (§1) The therapeutic efficacy Ac-c(C)rrarar-NH2, (SEQ ID NO:28) was assessed using an adenine-induced model of chronic renal failure in rats. The rats were obtained from Charles River Laboratories (Wilmington, Mass.). The rats were fed a low protein (2.5%), high phosphorus (0.92%) diet containing 0.75% adenine (Teklad Custom Diet). Animals were randomly assigned to receive daily subcutaneous doses of vehicle (10 mM succinic acid, 0.85% NaCl, 0.9% benzyl alcohol, pH 4.5) or Ac-c(C)rrarar-NH2 (SEQ ID NO:28) at 0.3 or 1 mg/kg (SC) for 4 weeks. A control group was fed the identical high phosphorus diet and tissues without adenine. Treatment was initiated at the start of diet. All experimental procedures with animals were performed according to IACUC guidelines. Statistical analysis was performed using one-way ANOVA with Bonferroni post test. All p-values are nominal.
Plasma PTH was measured using the Immunotopics BioActive Intact ELISA (Immutopics, San Clemente, Calif.). Prior to dosing with Ac-c(C)rrarar-NH2 (SEQ ID NO:28), all treatment groups had similar plasma PTH levels. The no-adenine-control animals maintained consistent plasma PTH levels over the 4 week study.

[2] = test system: adenine-induced model of chronic renal failure in rats; test: Creatinine suppression in adenine-induced chronic renal failure; conditions: 4 weeks
Experimental: as §1
Serum creatinine was measured using QuantiChrom™ kit (BioAssay Systems, Hayward, Calif.). Serum creatinine levels from vehicle-treated uremic animals were approximately 8-10 fold higher compared to the control group of non-uremic animals at the end of the 4 weeks. […] Uremic animals treated with Ac-c(C)rrarar-NH2 (SEQ ID NO:28) at a dose of 1 mg/kg Ac-c(C)rrarar-NH2 (SEQ ID NO:28) had approximately 50% lower serum creatinine levels compared with vehicle-treated controls.

[3] = test system: adenine-induced model of chronic renal failure in rats; test: Serum phosphorus, calcium and calcium-phosphorus product in adenine-induced chronic renal failure; conditions: uremic rats
Experimental: as §1
Phosphorus and calcium were determined using a Cobas c-501 analyzer.

[4] = test system: adenine-induced model of chronic renal failure in rats; test: Parathyroid gland weight in adenine-induced chronic renal failure; conditions: 0.3 or 1 mg/kg SC daily for 4 weeks
Experimental: as §1
The effects of Ac-c(C)rrarar-NH2 (SEQ ID NO:28) treatment on parathyroid gland enlargement was also determined using the adenine-induced rat model of chronic renal failure. After treatment with Ac-c(C)rrarar-NH2 (SEQ ID NO:28) at doses of 0.3 or 1 mg/kg for 4 weeks, the uremic rats were sacrificed and the parathyroid glands were removed, trimmed and weighed.

[5] = test system: adenine-induced model of chronic renal failure in rats; test: Vascular calcification (Alizarin Red, von Kossa) in adenine-induced chronic renal failure; conditions: uremic rats
Experimental: as §1
The effects of Ac-c(C)rrarar-NH2 (SEQ ID NO:28) treatment of vascular calcification was also determined using adenine-induced rat model of chronic renal failure. After treatment with Ac-c(C)rrarar-NH2 (SEQ ID NO:28) at doses of 0.3 or 1 mg/kg for 4 weeks, the uremic rats were sacrificed and aortic tissue was analyzed. Aortic tissue was processed and stained by Alizarin Red and von Kossa methods to visualize vascular mineralization. Using a scoring system from 0-5, identical sections of von Kossa-stained aorta from all animals were scored in a blinded fashion.

[6] = 0.3 and 1 mg/kg SC daily for 4 weeks
[7] = 0.3 or 1 mg/kg SC daily for 4 weeks

Ac-c(C)rrarar-NH2
plasma PTH versus vehicle-treated animals [1]: significantly lower | serum creatinine levels versus vehicle-treated uremic rats ([2]; 0.3 and 1 mg/kg SC daily): significantly lower | lower serum creatinine levels compared with vehicle-treated controls ([2]; uremic rats, 1 mg/kg SC daily): approximately 50% | reduction in serum calcium-phosphorus product ([3]; 0.3 mg/kg SC daily for 4 weeks): ~20% | reduction in serum calcium-phosphorus product ([3]; 1 mg/kg SC daily for 4 weeks): ~40% | serum calcium compared to vehicle-treated rats [3, 6]: significant dose-dependent reduction | serum phosphorus levels [3, 6]: significant reduction | parathyroid gland weight compared to non-uremic animals [4]: not significantly different in weight | parathyroid gland weight compared to vehicle group ([4]; uremic rats): significantly reduced in weight | animals showing aortic mineralization ([5]; 0.3 mg/kg treatment group, 4 weeks): Only one animal | aortic mineralization, Alizarin Red and Von Kossa staining [5, 7]: little or no mineralization | von Kossa staining of aorta [5, 7]: no appreciable von Kossa staining
